Data published in US8258186B2, “Pharmaceutical for oral delivery comprising MGBG” (Pathologica, LLC, priority 2009, dated 2012).

What was measured:
[1] = Rat single-dose pharmacokinetics; type: in vivo, Sprague Dawley rats
Procedure: Eighteen male Sprague Dawley rats (Charles River) weighing 217-263 g and aged 8-9 weeks were administered the test article, MGBG as either a single bolus intravenous dose of 1 mg/kg (Group 1) or as a single oral gavage dose of 10 mg/kg. A cohort of three animals was sacrificed via CO2 inhalation anaesthesia after final blood collection at each of T=2, 4, 12, 24, 36, and 48 hours post-dose. Dose formulation analysis verified administered dose solutions as within 17% of targeted concentration of 10 mg/kg.
Analysis was performed by LC/MS/MS. Pharmacokinetic analyses were performed on the mean MGBG plasma concentration versus time data using the non-compartmental approach (linear trapezoidal rule for AUC calculations). The WinNonlin sparse sampling tool was used for PK calculations. All samples reported as BQL (Below the Limit of Quantitation, in plasma 2.50 ng/mL) were changed to 0.00 ng/mL for the purpose of analysis.

[2] = test system: carrageenan-induced paw edema and hyperalgesia; assay: Carrageenan paw test for edema and hyperalgesia; type: in vivo, Swiss Webster mice
Description: Injection of carrageenan subcutaneously into the hind foot (paw) of a rat or mouse induces robust inflammation and pain. The inflammatory response begins 1-2 hrs post-carrageenan injection and persists for at least five hours following inoculation. In addition, the animal's inflamed hind paw is sensitive to noxious (hyperaglesia) or innocuous (allodynia) stimuli, compared to the contralateral hind paw. Compounds can be evaluated in this model for anti-hyperalgesia and anti-inflammatory activity. […] It is possible that some compounds will affect the inflamed paw and not affect the responses of the contralateral paw.
Embodiments of the carrageenan foot edema test are performed with materials, reagents and procedures essentially as described by Winter, et al., (Proc. Soc. Exp. Biol. Med., 111, 544 (1962)). Prophylactic and therapeutic embodiments have been developed, and are known in the art. The animals are evaluated for their responsiveness to noxious (paw pinch, plantar test) or innocuous (cold plate, von Frey filaments) stimuli. In the following protocol, mice were used.
Animals, compounds, and dosing. Healthy young male Swiss Webster mice in which weight variation of the mice will not exceed ±20% of the mean were used for the study. […]
Paw Edema. Immediately before sub-plantar administration of carrageenan and after 2, 3, 5 and 24 hours post carrageenan, mouse paw volume was measured using the plethysmometer (Ugo Basile). The assessment of edema was expressed as the mean increase in paw volume relative to control.
Assessment of Paw Withdrawal Latency. Prior to sub-plantar administration of carrageenan and after 0.5, 2, 3, 5, and 24 hours post-carrageenan, the latency of withdrawal response was determined by placing mice on a hot plate analgesia meter with surface temperature maintained at 51° C. […] Paw withdrawal latency is calculated as Δt=right paw withdrawal−left paw withdrawal. […]

[3] = male, Sprague Dawley, plasma, single bolus IV 1 mg/kg, mean
[4] = male, Sprague Dawley, plasma, single oral gavage 10 mg/kg, mean
[5] = male, Sprague Dawley, single bolus IV 1 mg/kg, plasma, mean

CC(/C=N/NC(=N)N)=N\NC(=N)N [MGBG, 1,1′[methylethanediylidene]dinitrilodiguanidine]
clinical findings ([1]; following dosing): Abnormal clinical findings were not noted | bioavailability ([1]; male, Sprague Dawley, plasma, oral 10 mg/kg vs IV 1 mg/kg): 11.6% | Tmax [1, 3]: 0.083 h | half-life [1, 3]: 1040 min | Tmax [1, 4]: 4.67 h | half-life [1, 4]: 1690 min | AUC [1, 5]: 1250 ng·h/mL | Cmax [1, 5]: 684 ng/mL | AUC ([1]; male, Sprague Dawley, single oral gavage 10 mg/kg, AUCall, time zero to last plasma concentration measurement): 1280 ng·h/mL | Cmax ([1]; male, Sprague Dawley, single oral gavage 10 mg/kg, plasma, mean): 55.8 ng/mL | time point through which MGBG levels in plasma were measurable ([1]; single PO 10 mg/kg, beyond that certain samples BLQ): 12 h | Clobs ([1]; single bolus IV 1 mg/kg, mean): 13.4 mL/min/kg | VSSobs ([1]; single bolus IV 1 mg/kg, mean): 15.4 L/kg | Clobs ([1]; single oral gavage 10 mg/kg, mean): 3.18 mL/min/kg | reduction of edema ([2]; mice, MGBG PO BID): efficacious | reduction of hyperalgesia ([2]; mice, MGBG PO BID, hot plate paw withdrawal latency): efficacious | efficacy at lower doses ([2]; murine carrageenan models, 3 mg/kg PO BID and 10 mg/kg PO BID): efficacy
